{"source": "patent US8236849B2", "about": "“Model for glutamate racemase inhibitors and glutamate racemase antibacterial agents” (Ohio Northern University, priority 2008, dated 2012)", "tested_on": "S. pneumoniae R6 strain", "experiment": "Whole-cell assay on blood agar plates, inhibition zones", "type": "cell-based", "details": "0.5, 0.75 and 1.0 μg/mL, data not shown", "description": "Whole-cell Assays: Selected compounds were assayed against S. pneumoniae on blood agar plates as shown on FIG. 3.", "data": [{"smiles": "Cc1ccc(C(=O)CC(NCCc2c[nH]c3ccccc23)C(=O)O)cc1", "note": "(centres unmarked) [Compound A, 2-(2-(1H-indol-3-yl)ethylamino)-4-oxo-4-p-tolylbutanoic acid]", "values": [{"measurement": "antibacterial activity (inhibition zones compared to DMSO)", "result": "weaker antibacterial activity than Compound B"}]}, {"smiles": "O=C(CC(NCCc1c[nH]c2ccccc12)C(=O)O)c1ccc(F)cc1", "note": "(centres unmarked) [Compound B, 2-(2-(1H-indol-3-yl)ethylamino)-4-(4-fluorophenyl)-4-oxobutanoic acid]", "values": [{"measurement": "antibacterial activity (inhibition zones compared to DMSO)", "result": "significant antibacterial activity"}]}]}
